Data as given in patent US5834453A, “Methods for the manufacture and use of antimicrobial sterol conjugates” (Lehigh University, priority 1997, dated 1998).
Converted amounts (≈) assume the structure as drawn. “Also recorded” adds a separate entry of the source.

Assays:
P. aeruginosa (2853) = experiment: MIC, micro-broth dilution; assay type: cell-based; conditions: Pseudomonas aeruginosa, 24 h, read-out: ANTIMICROBIAL ACTIVITY (MIC)
Experimental: (§1) The antimicrobial activity of the compounds according to the present invention were compared with the results obtained for squalamine as reported in Proc. Nat. Acad. Sci. USA 90:1354 (1993), supra, the disclosure of which is incorporated in toto herein. The data reported in the following table is the minimum inhibitory concentration (MIC) required for complete inhibition of microbial growth. The MIC was determined utilizing known micro-broth dilution methods in which inocula of 10^6 /ml of the test organism were incubated in 0.5× trypticase soy broth at 35° C. for 24 hours. MIC's were also tested under various pH conditions, with calcium chloride or magnesium chloride, or with immobilized horse serum.
(§2) The numbers in parentheses contained in the table correspond to accession numbers with the American Type Culture Collection (reference strains were either obtained from the American Type Culture Collection or from the Microbiology Laboratory at Memorial Sloan-Kettering Cancer Center; Bacterial strains were maintained on Columbia 5% sheep blood agar plates, and fungi were maintained on Sabouraud Dextrose agar plates).

E. coli (25922) = experiment: MIC, micro-broth dilution; assay type: cell-based; conditions: Escherichia coli, 35° C., 24 hours, read-out: ANTIMICROBIAL ACTIVITY (MIC)
Experimental: as §1, §2

A. fumigatus (H1120) = experiment: MIC, micro-broth dilution; assay type: cell-based; conditions: Aspergillus fumigatus, 35° C., 24 hours, read-out: ANTIMICROBIAL ACTIVITY (MIC)
Experimental: as §1, §2

S. aureus (H20809) = experiment: MIC, micro-broth dilution; assay type: cell-based; conditions: Staphylococcus aureus, 24 h, read-out: ANTIMICROBIAL ACTIVITY (MIC)
Experimental: as §1, §2

E. cloacae (13047) = experiment: MIC, micro-broth dilution; assay type: cell-based; conditions: Enterobacter cloacae, 35° C., 24 hours, read-out: ANTIMICROBIAL ACTIVITY (MIC)
Experimental: as §1, §2

S. aureus (29213) = experiment: MIC, micro-broth dilution; assay type: cell-based; conditions: Staphylococcus aureus, 24 h, read-out: ANTIMICROBIAL ACTIVITY (MIC)
Experimental: as §1, §2

S. pneumoniae (6305) = experiment: MIC, micro-broth dilution; assay type: cell-based; conditions: Streptococcus pneumoniae, 35° C., 24 hours, read-out: ANTIMICROBIAL ACTIVITY (MIC)
Experimental: as §1, §2

A. fumigatus (H29709) = experiment: MIC, micro-broth dilution; assay type: cell-based; conditions: Aspergillus fumigatus, 35° C., 24 hours, read-out: ANTIMICROBIAL ACTIVITY (MIC)
Experimental: as §1, §2

S. aureus (25923) = experiment: MIC, micro-broth dilution; assay type: cell-based; conditions: Staphylococcus aureus, 35° C., 24 hours, read-out: ANTIMICROBIAL ACTIVITY (MIC)
Experimental: as §1, §2

P. aeruginosa (10145) = experiment: MIC, micro-broth dilution; assay type: cell-based; conditions: Pseudomonas aeruginosa, 35° C., 24 hours, read-out: ANTIMICROBIAL ACTIVITY (MIC)
Experimental: as §1, §2

S. pyrogenes (19615) = experiment: MIC, micro-broth dilution; assay type: cell-based; conditions: 24 h, read-out: ANTIMICROBIAL ACTIVITY (MIC)
Experimental: as §1, §2

S. agalactiae (13813) = experiment: MIC, micro-broth dilution; assay type: cell-based; conditions: Streptococcus agalactiae, 35° C., 24 hours, read-out: ANTIMICROBIAL ACTIVITY (MIC)
Experimental: as §1, §2

S. epidermidis (12228) = experiment: MIC, micro-broth dilution; assay type: cell-based; conditions: Staphylococcus epidermidis, 35° C., 24 hours, read-out: ANTIMICROBIAL ACTIVITY (MIC)
Experimental: as §1, §2

E. faecalis (29212) = experiment: MIC, micro-broth dilution; assay type: cell-based; conditions: Enterococcus faecalis, 35° C., 24 hours, read-out: ANTIMICROBIAL ACTIVITY (MIC)
Experimental: as §1, §2

S. marcescens (13880) = experiment: MIC, micro-broth dilution; assay type: cell-based; conditions: for MIC: Serratia marcescens, 24 h, read-out: ANTIMICROBIAL ACTIVITY (MIC)
Experimental: as §1, §2

C. neoformans (90012) = experiment: MIC, micro-broth dilution; assay type: cell-based; conditions: Cryptococcus neoformans, 24 h, read-out: ANTIMICROBIAL ACTIVITY (MIC)
Experimental: as §1, §2

E. faecium (T6480-9) = experiment: MIC, micro-broth dilution; assay type: cell-based; conditions: Enterococcus faecium, 35° C., 24 hours, read-out: ANTIMICROBIAL ACTIVITY (MIC)
Experimental: as §1, §2

P. vulgaris (13315) = experiment: MIC, micro-broth dilution; assay type: cell-based; conditions: Proteus vulgaris, 35° C., 24 hours, read-out: ANTIMICROBIAL ACTIVITY (MIC)
Experimental: as §1, §2

K. pneumoniae (13883) = experiment: MIC, micro-broth dilution; assay type: cell-based; conditions: Klebsiella pneumoniae, 24 h, read-out: ANTIMICROBIAL ACTIVITY (MIC)
Experimental: as §1, §2

C. albicans (90028) = experiment: MIC, micro-broth dilution; assay type: cell-based; conditions: Candida albicans, 35° C., 24 hours, read-out: ANTIMICROBIAL ACTIVITY (MIC)
Experimental: as §1, §2

C. neoformans (M68979) = experiment: MIC, micro-broth dilution; assay type: cell-based; conditions: Cryptococcus neoformans, 24 h, read-out: ANTIMICROBIAL ACTIVITY (MIC)
Experimental: as §1, §2

[1] = Hemolytic activity, minimal hemolytic concentration (MHC); assay type: cell-based, sheep; conditions: sheep, red blood cells;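 further: MCC here is the minimal hemolytic concentration (MHC)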
Experimental: Hemolytic activity of the squalamine mimics according to the present invention were also studied by incubating sheep red blood cells for 24 hours at 37° C. in saline (final concentration of 0.5%) with or without respective concentrations of the squalamine mimics. The minimal hemolytic concentration (MHC) was determined as the lowest concentration of a mimic that raised visible hemolysis.

| Compound | MIC (P. aeruginosa (2853)) | MIC (E. coli (25922)) | MIC (A. fumigatus (H1120)) | MIC (S. aureus (H20809)) | MIC (E. cloacae (13047)) | MIC (S. aureus (29213)) | MIC (S. pneumoniae (6305)) | MIC (A. fumigatus (H29709)) | MIC (S. aureus (25923)) | MIC (P. aeruginosa (10145)) | MIC (S. pyrogenes (19615)) | MIC (S. agalactiae (13813)) | MIC (S. epidermidis (12228)) | MIC (E. faecalis (29212)) | MIC (S. marcescens (13880)) | MIC (C. neoformans (90012)) | MIC (E. faecium (T6480-9)) | MIC (P. vulgaris (13315)) | MIC (K. pneumoniae (13883)) | MIC (C. albicans (90028)) | other results |
| --- | --- | --- | --- | --- | --- | --- | --- | --- | --- | --- | --- | --- | --- | --- | --- | --- | --- | --- | --- | --- | --- |
| C[C@H](CCCNCCCCN)[C@H]1CC[C@H]2[C@@H]3CC[C@@H]4C[C@H](O)CC[C@]4(C)[C@H]3C[C@H](O)[C@]12C [SM-9H] | 6.25 mg/L (≈ 13.9 µM) | 25 mg/L (≈ 55.7 µM) | 12.5 mg/L (≈ 27.9 µM) | 3.13 mg/L (≈ 6.98 µM) | 100 mg/L (≈ 223 µM) | 1.56 mg/L (≈ 3.48 µM) | 6.25 mg/L (≈ 13.9 µM) | 6.25 mg/L (≈ 13.9 µM) | 1.56 mg/L (≈ 3.48 µM) | 12.5 mg/L (≈ 27.9 µM) | 0.78 mg/L (≈ 1.74 µM) | 3.13 mg/L (≈ 6.98 µM) | 1.56 mg/L (≈ 3.48 µM) | 6.25 mg/L (≈ 13.9 µM) | > 100 mg/L | 0.78 mg/L (≈ 1.74 µM) | 25 mg/L (≈ 55.7 µM) | 12.5 mg/L (≈ 27.9 µM) | 50 mg/L (≈ 111 µM) | 3.13 mg/L (≈ 6.98 µM) | MIC (C. neoformans (M68979)): 0.78 mg/L (≈ 1.74 µM); MCC at 24 h [1]: 50 µg/mL |
| C[C@H](CCC(=O)NCCCCN)[C@H]1CC[C@H]2[C@@H]3CC[C@@H]4C[C@H](O)CC[C@]4(C)[C@H]3C[C@H](O)[C@]12C [SM-9] | 100 mg/L (≈ 216 µM) | 50 mg/L (≈ 108 µM) | 50 mg/L (≈ 108 µM) | 25 mg/L (≈ 54 µM) | 50 mg/L (≈ 108 µM) | 25 mg/L (≈ 54 µM) | 25 mg/L (≈ 54 µM) | 50 mg/L (≈ 108 µM) | 25 mg/L (≈ 54 µM) | 100 mg/L (≈ 216 µM) | 6.25 mg/L (≈ 13.5 µM) | 12.5 mg/L (≈ 27 µM) | 25 mg/L (≈ 54 µM) | 25 mg/L (≈ 54 µM) | > 100 mg/L | 25 mg/L (≈ 54 µM) | 50 mg/L (≈ 108 µM) | 50 mg/L (≈ 108 µM) | 50 mg/L (≈ 108 µM) | 25 mg/L (≈ 54 µM) | MIC (C. neoformans (M68979)): 25 mg/L (≈ 54 µM); MCC at 24 h [1]: 50 µg/mL |
| C[C@H](CCC(=O)NCCNCCNCCN)[C@H]1CC[C@H]2[C@@H]3CC[C@@H]4C[C@H](O)CC[C@]4(C)[C@H]3C[C@H](O)[C@]12C [SM-11] | 6.25 mg/L (≈ 12 µM) | 12.5 mg/L (≈ 24 µM) | 12.5 mg/L (≈ 24 µM) | 12.5 mg/L (≈ 24 µM) | 12.5 mg/L (≈ 24 µM) | 12.5 mg/L (≈ 24 µM) | 12.5 mg/L (≈ 24 µM) | 12.5 mg/L (≈ 24 µM) | 6.25 mg/L (≈ 12 µM) | 6.25 mg/L (≈ 12 µM) | 6.25 mg/L (≈ 12 µM) | 6.25 mg/L (≈ 12 µM) | 6.25 mg/L (≈ 12 µM) | 12.5 mg/L (≈ 24 µM) | 50 mg/L (≈ 96 µM) | 6.25 mg/L (≈ 12 µM) | 12.5 mg/L (≈ 24 µM) | 25 mg/L (≈ 48 µM) | 12.5 mg/L (≈ 24 µM) | 12.5 mg/L (≈ 24 µM) | activity against S. marcescens (S. marcescens (13880); in words): found even against S. marcescens; also recorded: effective against S. marcescens; MIC (C. neoformans (M68979)): 6.25 mg/L (≈ 12 µM); MCC at 24 h [1]: 25 µg/mL |
